# From US20190240210A1, “Treatment Method by Combined Use of MDM2 Inhibitor and DNA Methyltransferase Inhibitor” (DAIICHI SANKYO COMPANY, LIMITED, priority 2016, published 2019)
# Experiments:
# [1] = Body weight change of MOLM-13 tumor-bearing NOD-SCID mice, Compound A and azacitidine (Test Example 1); type: in vivo, mouse; settings: azacitidine 4 mg/kg iv
# Experimental: (§1) Human acute myeloid leukemia cell line MOLM-13 cells were suspended to 5×10^7 cells/mL using phosphate-buffered saline. 0.1 mL of the prepared cell suspension was subcutaneously transplanted to each NOD-SCID mouse (male, 6 weeks old). On 6 days after the tumor inoculation, after confirmation that the average tumor volume exceeded 100 mm^3, the mice were grouped on the basis of their tumor volume values. 25 mg/kg or 50 mg/kg Compound A was orally administered by forced administration to the mice. 2.5 mg/kg or 4 mg/kg azacitidine was intravenously administered to the tails of the mice. For a combined use group, 25 mg/kg or 50 mg/kg Compound A and 2.5 mg/kg or 4 mg/kg azacitidine were administered sequentially. The administration of Compound A was performed once a day for 5 consecutive days (6 to 10 days after the tumor inoculation) from the date of grouping (6 days after the tumor inoculation), and after a 2-day drug holiday, performed once a day for 4 consecutive days (13 to 16 days after the tumor inoculation). The administration of azacitidine was performed once a day for 5 consecutive days (6 to 10 days after the tumor inoculation) from the date of grouping (6 days after the tumor inoculation). The major axis (mm) and minor axis (mm) of tumor were measured over time using an electronic digital caliper. Tumor growth inhibition % (TGI %) on the date of assessment (17 days after the tumor inoculation) calculated according to calculation formula (4) shown below was used in evaluation. Also, the body weights were measured over time using an automatic balance for small animals, and body weight change % was calculated according to calculation formula (5) shown below to study the influence of drug administration on the body weights. In addition, the results of the last body weight measurement were used in dose calculation.
# (§2) Body weight change (%)=Average body weight change % of the individuals (5)
# (§3) Body weight change % of each individual=[…]
# (§4) BWn: Body weight on day n
# (§5) BWs: Body weight on the start day of administration
# [2] = system: human acute myeloid leukemia cell line MOLM-13; test: In vivo effect of combined use of Compound A and azacitidine on subcutaneous MOLM-13 tumors in NOD-SCID mice (Test Example 1); settings: azacitidine 4 mg/kg iv
# Experimental: (§6) Human acute myeloid leukemia cell line MOLM-13 cells were suspended to 5×10^7 cells/mL using phosphate-buffered saline. 0.1 mL of the prepared cell suspension was subcutaneously transplanted to each NOD-SCID mouse (male, 6 weeks old). […] The major axis (mm) and minor axis (mm) of tumor were measured over time using an electronic digital caliper. […] In addition, the results of the last body weight measurement were used in dose calculation. […] A: Average tumor volume of the compound-administered group on the date of assessment (*) B: Average tumor volume of the untreated control group on the date of assessment (*) *: The tumor volume was calculated according to ½×[Major axis of tumor]×[Minor axis of tumor]×[Minor axis of tumor].
# [3] = Body weight change of MOLM-13 tumor-bearing NOD-SCID mice, Compound A and decitabine (Test Example 2); type: in vivo, mouse
# Experimental: as §1, with “the mice. 1 mg/kg or” for “the mice. 2.5 mg/kg or”, “mg/kg or 50 mg/kg decitabine” for “mg/kg or 4 mg/kg azacitidine”, “50 mg/kg decitabine was intravenously” for “4 mg/kg azacitidine was intravenously”, “A and 1 mg/kg or” for “A and 2.5 mg/kg or”, “50 mg/kg decitabine were administered” for “4 mg/kg azacitidine were administered”, “administration of decitabine to the 50 mg/kg group was performed at the date of grouping (6 days after the tumor inoculation), and the administration thereof to the 1 mg/kg group was performed” for “administration of azacitidine was performed”
# as §2, §3, §4, §5
# [4] = system: human acute myeloid leukemia cell line MOLM-13; test: In vivo effect of combined use of Compound A and decitabine on subcutaneous MOLM-13 tumors in NOD-SCID mice (Test Example 2); settings: for TGI (%): 17 days after tumor inoculation
# Experimental: as §6, with “old). […] For a combined use group, 25 mg/kg or 50 mg/kg Compound A and 1 mg/kg or 50 mg/kg decitabine were administered sequentially.” for “old).”
# [5] = decitabine 1 mg/kg iv, day 6 after tumor inoculation
# [6] = decitabine 1 mg/kg iv, day 8 after tumor inoculation
# [7] = decitabine 1 mg/kg iv, day 10 after tumor inoculation
# [8] = decitabine 1 mg/kg iv, day 13 after tumor inoculation
# [9] = decitabine 1 mg/kg iv, day 15 after tumor inoculation
# [10] = decitabine 1 mg/kg iv, day 17 after tumor inoculation
# [11] = decitabine 50 mg/kg iv, day 6 after tumor inoculation
# [12] = decitabine 50 mg/kg iv, day 8 after tumor inoculation
# [13] = decitabine 50 mg/kg iv, day 10 after tumor inoculation
# [14] = decitabine 50 mg/kg iv, day 13 after tumor inoculation
# [15] = decitabine 50 mg/kg iv, day 15 after tumor inoculation
# [16] = decitabine 50 mg/kg iv, day 17 after tumor inoculation
smiles,measurement,setting,value
"Nc1ncn([C@@H]2O[C@H](CO)[C@@H](O)[C@H]2O)c(=O)n1 [Azacitidine, 4-amino-1-β-D-ribofuranosyl-1,3,5-triazin-2(1H)-one, reference compound]","Body weight change (%), average",[1]; day 6 after tumor inoculation,0.0%
same,"Body weight change (%), average",[1]; day 8 after tumor inoculation,−0.2%
same,"Body weight change (%), average",[1]; day 10 after tumor inoculation,−0.4%
same,"Body weight change (%), average",[1]; day 13 after tumor inoculation,5.4%
same,"Body weight change (%), average",[1]; day 15 after tumor inoculation,8.8%
same,"Body weight change (%), average",[1]; day 17 after tumor inoculation,12.1%
same,TGI (%),[2]; 17 days after tumor inoculation,28%
same,"Estimated tumor volume, average",[2]; day 6 after tumor inoculation,115 mm^3
same,"Estimated tumor volume, average",[2]; day 8 after tumor inoculation,226 mm^3
same,"Estimated tumor volume, average",[2]; day 10 after tumor inoculation,334 mm^3
same,"Estimated tumor volume, average",[2]; day 13 after tumor inoculation,637 mm^3
same,"Estimated tumor volume, average",[2]; day 15 after tumor inoculation,1359 mm^3
same,"Estimated tumor volume, average",[2]; day 17 after tumor inoculation,1855 mm^3
"Nc1ncn([C@H]2C[C@H](O)[C@@H](CO)O2)c(=O)n1 [Decitabine, 4-amino-1-(2-deoxy-β-D-erythro-pentofuranosyl)-1,3,5-triazin-2(1H)-one, reference compound]","Body weight change (%), average",[3]; [5],0.0%
same,"Body weight change (%), average",[3]; [6],2.6%
same,"Body weight change (%), average",[3]; [7],2.5%
same,"Body weight change (%), average",[3]; [8],7.8%
same,"Body weight change (%), average",[3]; [9],11.5%
same,"Body weight change (%), average",[3]; [10],14.3%
same,"Body weight change (%), average",[3]; [11],0.0%
same,"Body weight change (%), average",[3]; [12],3.7%
same,"Body weight change (%), average",[3]; [13],6.0%
same,"Body weight change (%), average",[3]; [14],9.6%
same,"Body weight change (%), average",[3]; [15],10.3%
same,"Body weight change (%), average",[3]; [16],14.6%
same,TGI (%),[4]; decitabine 1 mg/kg iv,38%
same,"Estimated tumor volume, average",[4]; [5],144 mm^3
same,"Estimated tumor volume, average",[4]; [6],228 mm^3
same,"Estimated tumor volume, average",[4]; [7],327 mm^3
same,"Estimated tumor volume, average",[4]; [8],585 mm^3
same,"Estimated tumor volume, average",[4]; [9],901 mm^3
same,"Estimated tumor volume, average",[4]; [10],1441 mm^3
same,TGI (%),[4]; decitabine 50 mg/kg iv,14%
same,"Estimated tumor volume, average",[4]; [11],145 mm^3
same,"Estimated tumor volume, average",[4]; [12],206 mm^3
same,"Estimated tumor volume, average",[4]; [13],365 mm^3
same,"Estimated tumor volume, average",[4]; [14],732 mm^3
same,"Estimated tumor volume, average",[4]; [15],1175 mm^3
same,"Estimated tumor volume, average",[4]; [16],1997 mm^3
